Read-outs that look alike come from different tables or passages of the source. Blank lines part the entries; values can stand above or below the compound they belong to.
Columns and labels:
FaDu cells = assay: IC50 assay (inhibition of proliferation, 4 h exposure, SRB); type: cell-based
SiHa cells [1] = assay: as above; details: SiHa
Experimental: Cells were seeded in 96-well plates (SiHa or FaDu 1500 cells/well, UT-SCC-74B 800 cells/well) in 100 μL. After incubation for 2 h, the drugs were added in 50 μL of the same titrated medium at 3× the final concentration to duplicate the wells. After a further 4 h the plates were checked for drug precipitation using a phase contrast microscope, then drugs were removed by aspirating and washing with the standard (pH 7.4) medium, then aspirating again and adding 150 μL of the medium. Cultures were then grown for 5 days before staining with sulphorhodamine B and measuring absorbance, with the estimation of IC50 values using 4-parameter logistic regression, as previously carried out.
The medium and plasticware was equilibrated in the chamber for 3 days prior to use. In the anoxia experiments, FaDu cells were plated in poly-L-lysine coated plates (Corning Cat # 356461) to improve attachment.
Cells were subsequently grown under standard cell culture conditions (oxia, pHe 7.4) for 5 days before staining with sulforhodamine B (SRB). […] (B) SN30000 (2). (C) BTO acid 4a. Values are means and errors are ranges for duplicate cultures in a single experiment. Fitted curves are 4-parameter logistic regressions. PCR = pH cytotoxicity ratio. ACR = anoxia cytotoxicity ratio. TMR = tumor microenvironment ratio.

SiHa cells [2] = tested on: SiHa cells
Experimental: In these experiments, cell pellets were collected by centrifugation and ^3H-mannitol was used as a cell-excluded marker to enable correction for the entrapped extracellular medium.
Log-phase cultures were dissociated with trypsin/EDTA, followed by the addition of the medium with DNAase I (Sigma DN-25) at 100 μg/mL for 5 min at 37 °C to minimize clumping. The cell pellets were collected by centrifugation and resuspended in αMEM with 5% FBS at pH 7.4 or 6.5 to 2 × 10^6 cells/mL. Samples (12 mL) were equilibrated with magnetic stirring at 37 °C under flowing humidified 5% CO2/air or N2 (50–100 mL/min), as previously described [86]. After equilibration for 60 min, the compounds were added in 50 μL of DMSO. The samples (5 mL) were withdrawn 5 and 60 min later, where the cell pellets were then collected by centrifugation and 4 mL of the supernatant was discarded. The pellets were resuspended in the remaining 1 mL, transferred to microcentrifuge tubes containing 7 μL ^3H-mannitol (740 GBq/mmol, American Radiolabeled Chemicals Inc., St. Louis, MO) as an extracellular marker, and then centrifuged (11,000g × 30s). The supernatant was removed and frozen at −80 °C (extracellular samples) and the tubes were centrifuged again, and any remaining medium was carefully removed. Ice-cold MeOH (80 μL) was added to the pellets which were disrupted by pipetting and stored at −80 °C (intracellular samples). When these were thawed for HPLC analysis (Section 4.12), the volume of extracellular water trapped in the pellets was determined by the scintillation counting (PerkinElmer Tri-Carb B2910TR Liquid Scintillation) of 25 μL of each extracellular and intracellular sample in 3 mL of Emulsifier-Safe™ scintillation cocktail (PerkinElmer). The extracellular volume in each intracellular sample was used to correct the intracellular drug concentration as previously described [87].
The samples were analyzed using an Agilent 1200 HPLC with a diode array absorbance detector and autosampler maintained at 4 °C (Agilent Technologies). The frozen samples were thawed, then centrifuged (11,000g × 5 min), and then extracellular samples were injected directly (typically 20 μL), while for the intracellular samples 30 μL was mixed 1:1 with αMEM and 50 μL was injected. […] All calibration curves were linear (R^2 > 0.999). The column was an Agilent ZORBAX Eclipse (XDB-C18, 5u, 2.1 × 150 mm, Agilent Technologies) with a flow rate of 0.4 mL/min. For SN30000 (2), the mobile phase was a mixture of 80% MeCN/water v/v (A), and a 45 mM formate buffer at a pH 4.5, eluting with a linear gradient of 5–100% A over 18 min. The same method was used for the BTO acids, except for 4a, where the aqueous mobile phase pH was reduced to 3.5.
Values are mean and SEM for 3 replicates. ND: Not detected.

[3] = One-electron reduction potentials by pulse radiolysis; type: physicochemical; details: pH 7.0, equilibrium with redox indicator shown in square brackets
Experimental: One-electron reduction potentials (E^0′) were determined from the redox equilibria with methylviologen, MV^2+, (E^0′ = […], [34]), dimethyldiquat, V21^2+, (E^0′ = […], [35]), or triquat, TQ^2+, (E^0′ = −548 ± 7 mV [34]). […] Substituting the 3-alkanoic sidechain with the 3-aminoalkanoic sidechain on the BTO 1,4-dioxide lowers the E^0′, as does the addition of the cyclopentane ring. The combined effect is seen for 10a, where the E^0′ value is −565 mV, which is expected to be too low for significant bioreduction under hypoxia.
Time-resolved optical absorption and kinetic studies were carried out using the University of Auckland’s 4 MeV linear accelerator, which has been previously described. The one-electron reduction potentials of the compounds (A) and couple E^0′(A/A^−), versus normal hydrogen electrode, were determined at pH 7.0 (2.5 mM phosphate) by establishing redox equilibria within 50 μs between three mixtures of one-electron reduced A and the viologen reference compounds, MV^2+, TQ^2+ and V21^2+. The determined equilibrium constants were used to calculate the ΔE values using the Nernst equation, correcting for ionic strength effects, as described in the literature.

[4] = Solubility in AlphaMEM + 5% FBS, pH 7.4; details: culture medium (AlphaMEM + 5% FBS), pH 7.4, plasma or biological fluid
[5] = Homo sapiens, 4 h, pHe 6.5, 4 h, anoxic, read-out: Anoxic IC50
[6] = Homo sapiens, 4 h, pHe 6.5, 4 h, oxic, read-out: Oxic IC50
[7] = Homo sapiens, 4 h, pHe 7.4, 4 h, anoxic, read-out: Anoxic IC50
[8] = Homo sapiens, 4 h, pHe 7.4, 4 h, oxic, read-out: Oxic IC50
[9] = Homo sapiens, 4 h, read-out: Anoxic IC50, SiHa, pHe 6.5, 4 h, anoxic
[10] = Homo sapiens, 4 h, read-out: Anoxic IC50, SiHa, pHe 7.4, 4 h, anoxic
[11] = Homo sapiens, 4 h, read-out: Oxic IC50, SiHa, pHe 6.5, 4 h, oxic
[12] = Homo sapiens, 4 h, read-out: Oxic IC50, SiHa, pHe 7.4, 4 h, oxic

- Ci ratio (Ci at pHe 6.5/Ci at pHe 7.4) (SiHa cells [2]): 4.4 ± 1.2 fold
- Ci/Ce, pHe 6.5 Obs 5 min (SiHa cells [2]): 0.17 ± 0.02
- Ci/Ce, pHe 6.5 Obs 60 min (SiHa cells [2]): 0.29 ± 0.02
- Ci/Ce, pHe 7.4 Obs 5 min (SiHa cells [2]): <0.1
- Ci/Ce, pHe 7.4 Obs 60 min (SiHa cells [2]): <0.1
- E^0′ one-electron reduction potential [3]: −481 ± 10 [MV^2+] mV
Compound: 3-((2-Carboxyethyl)amino)-7,8-dihydro-6H-indeno[5,6-e][1,2,4]triazine 1,4-Dioxide [Compound 11a]
- TMR (oxic IC50 pHe 7.4/anoxic IC50 pHe 6.5) (FaDu cells): >1
- PCR Anoxic (IC50 at pHe 7.4/IC50 at pHe 6.5) (FaDu cells; anoxic): >1
- ACR (oxic IC50/anoxic IC50) (FaDu cells; pHe 6.5): > 1
- IC50 (FaDu cells; pHe 6.5, 4 h, anoxic, read-out: Anoxic IC50): 3810 ± 390 µM
- IC50 (FaDu cells; pHe 6.5, 4 h, oxic, read-out: Oxic IC50): > 4000 µM
- IC50 (FaDu cells; pHe 7.4, 4 h, anoxic, read-out: Anoxic IC50): > 4000 µM
- IC50 (FaDu cells; pHe 7.4, 4 h, oxic, read-out: Oxic IC50): > 4000 µM
- TMR (overall TME ratio = oxic IC50 pHe 7.4/anoxic IC50 pHe 6.5) (SiHa cells [1]): 15.9 ± 1.6
- PCR Anoxic (IC50 at pHe 7.4/IC50 at pHe 6.5) (SiHa cells [1]; anoxic): 4.94 ± 1.14
- PCR oxic (IC50 at pHe 7.4/IC50 at pHe 6.5) (SiHa cells [1]; oxic): 4.18 ± 0.21
- IC50 (SiHa cells [1]; read-out: Anoxic IC50, pHe 6.5, 4 h, anoxic): 145 ± 13 µM
- IC50 (SiHa cells [1]; read-out: Anoxic IC50, pHe 7.4, 4 h, anoxic): 714 ± 152 µM
- IC50 (SiHa cells [1]; read-out: Oxic IC50, pHe 6.5, 4 h, oxic): 551 ± 16 µM
- IC50 (SiHa cells [1]; read-out: Oxic IC50, pHe 7.4, 4 h, oxic): 2300 ± 92 µM

- melting point: 173 to 175 °C (dec.)
- solubility ([4]; kinetic from dmso stock): > 960 µM
Compound: Cc1ccc2c(c1)[n+]([O-])c(CCC(=O)O)n[n+]2[O-] [Compound 6a, 3-(2-Carboxyethyl)-6-methylbenzo[e][1,2,4]triazine 1,4-Dioxide]
- TMR (oxic IC50 pHe 7.4/anoxic IC50 pHe 6.5) (FaDu cells): >5
- IC50 (FaDu cells; [5]): 205 ± 25 µM
- IC50 (FaDu cells; [6]): > 1000 µM
- IC50 (FaDu cells; [7]): > 1000 µM
- IC50 (FaDu cells; [8]): > 1000 µM
- PCR Anoxic (IC50 at pHe 7.4/IC50 at pHe 6.5) (FaDu cells; anoxic): >5
- ACR (oxic IC50/anoxic IC50) (FaDu cells; pHe 6.5): >5
- IC50 (SiHa cells [1]; [9]): 364 ± 47 µM
- IC50 (SiHa cells [1]; [10]): 1180 ± 190 µM
- IC50 (SiHa cells [1]; [11]): > 1000 µM
- IC50 (SiHa cells [1]; [12]): > 1000 µM
- TMR (overall TME ratio = oxic IC50 pHe 7.4/anoxic IC50 pHe 6.5) (SiHa cells [1]): >2.7
- PCR Anoxic (IC50 at pHe 7.4/IC50 at pHe 6.5) (SiHa cells [1]; anoxic): 3.24 ± 0.67
- ACR (anoxic cytotoxicity ratio = oxic IC50/anoxic IC50) (SiHa cells [1]; pHe 6.5): >2.7

- melting point: 170 to 171 °C
- solubility ([4]; thermodynamic from solid): 280 µM
Compound: COC(=O)CCc1n[n+]([O-])c2cc3c(cc2[n+]1[O-])CCC3 [Compound 7b, 3-(3-Methoxy-3-oxopropyl)-7,8-dihydro-6H-indeno[5,6-e][1,2,4]triazine 1,4-Dioxide]
- TMR (oxic IC50 pHe 7.4/anoxic IC50 pHe 6.5) (FaDu cells): >10
- IC50 (FaDu cells; [5]): 20 ± 5.4 µM
- IC50 (FaDu cells; [6]): 157 ± 28 µM
- IC50 (FaDu cells; [7]): 11.5 ± 2.2 µM
- IC50 (FaDu cells; [8]): > 200 µM
- PCR Anoxic (IC50 at pHe 7.4/IC50 at pHe 6.5) (FaDu cells; anoxic): 0.58 ± 0.19
- PCR oxic (IC50 at pHe 7.4/IC50 at pHe 6.5) (FaDu cells; oxic): >1.2
- ACR (oxic IC50/anoxic IC50) (FaDu cells; pHe 6.5): 7.84 ± 2.56
- ACR (oxic IC50/anoxic IC50) (FaDu cells; pHe 7.4): >17
- IC50 (SiHa cells [1]; [9]): 15.1 ± 3.1 µM
- IC50 (SiHa cells [1]; [10]): 7.3 ± 1.6 µM
- IC50 (SiHa cells [1]; [11]): 195 ± 22 µM
- IC50 (SiHa cells [1]; [12]): > 200 µM
- TMR (overall TME ratio = oxic IC50 pHe 7.4/anoxic IC50 pHe 6.5) (SiHa cells [1]): >13
- PCR Anoxic (IC50 at pHe 7.4/IC50 at pHe 6.5) (SiHa cells [1]; anoxic): 0.48 ± 0.15
- PCR oxic (IC50 at pHe 7.4/IC50 at pHe 6.5) (SiHa cells [1]; oxic): >1
- ACR (anoxic cytotoxicity ratio = oxic IC50/anoxic IC50) (SiHa cells [1]; pHe 6.5): 13.0 ± 3.0
- ACR (anoxic cytotoxicity ratio = oxic IC50/anoxic IC50) (SiHa cells [1]; pHe 7.4): >27

Reference: publication PMC6680510, “Benzotriazine Di-Oxide Prodrugs for Exploiting Hypoxia and Low Extracellular pH in Tumors” (Molecules, 2019)
